Tests used:
yeast mitochondria = assay: Membrane potential ΔΨ of isolated yeast mitochondria (safranin O); format: biochemical, Saccharomyces cerevisiae; details: BSA absent
Experimental: The yeast strain W303-1A (Saccharomyces cerevisiae) was grown aerobically at 30° C. in a medium containing 2% lactate, 1% yeast extract, 2% peptone, 0.05% dextrose, and 0.01% adenine at pH 5.0, and cells were harvested during the logarithmic phase (A600=1.8−2.2). Mitochondria were isolated from spheroplasts as previously described (Jung et al., 1997 J. Biol. Chem. 272:21104), except that 0.6 M sucrose was used in the homogenization medium instead of 0.6 M mannitol (Daum et al., 1982 J. Biol. Chem. 257:13028). The resulting preparations were maintained on ice and were suspended in 0.6 M mannitol 20 mM HEPES (K+) (pH 6.8), containing 0.75 mg/ml BSA and 0.1 mM EGTA. Protein concentration was determined by a reduced volume Biuret method in which 50 μl of the final preparation were solubilized by adding an equal volume of 10% deoxycholate (Na+), with 0.4 ml of Biuret reagent added to the resulting mixture. BSA was employed as the standard.
Unless otherwise noted, mitochondria were incubated at 1 mg protein/ml and at approximately 25° C. in a medium that contained 0.6 M mannitol, 10 mM Pi (K+), 10 mM Hepes (TEA+), pH 7.2, plus 1 mM ethanol as an oxidizable substrate. Compounds having a low solubility in water were added from stock solutions prepared in methanol or DMSO. Ca2+ transport and membrane potential were monitored using the indicating dyes antipyrylazo III (ΔA720-790) and safranin O (ΔA511-533), respectively (Akerman et al., 1976 FEBS Lett. 68:191; Scarpa et al., 1978 Biochem. 17:1378). An SLM Aminco DW-2C spectrophotometer operated in the dual wavelength mode was employed for these purposes. The same instrument, operated in split beam mode, was used to monitor mitochondrial swelling as a decrease in apparent absorbance of mitochondrial suspensions at 540 nm. Oxygen consumption data were obtained using a Clark-type electrode in parallel experiments. Atomic absorption spectroscopy was utilized to monitor the transport of other cations by yeast mitochondria. Briefly, samples were taken at appropriate times and the mitochondria were rapidly sedimented in a microcentrifuge. After carefully removing supernatants, the pellets were solubilized with 2 N percholoric acid (overnight) and centrifuged a second time. The resulting supernatants were diluted with an appropriate volume of distilled water and the concentration of the cation in question was subsequently determined.

intact yeast = assay: Aequorin luminescence in intact yeast cells expressing mitochondrially targeted aequorin; format: cell-based, Saccharomyces cerevisiae
Experimental: Yeast cells (strain X4003-5B; leu2, ade1, his4, met2, ura3, trp5, gal1) obtained from the Yeast Genetic Stock Center (Berkeley, Calif.) were transformed with the pYES2 plasmid, encoding the human mitochondrially targeted apoaequorin fragment, using the lithium acetate method (Sambrook et al., 1989), and INVSc1 cells were transformed with the pGK plasmid encoding the yeast mitochondrially targeted apoaequorin fragment. Selection was carried out on plates prepared with synthetic complete medium minus uracil (SC-U) (Sherman, 1991 Meths. Enzymol. 194:3). Transformed colonies were cultured in a small volume of SC-U and assayed for aequorin activity in vitro as described by Nakajima et al. (1991 Proc. Nat. Acad. Sci. USA 88:6878). Briefly, the cells were harvested by centrifugation, resuspended in lysis buffer (50 mM Tris, 2 mM EDTA, 0.5 mM PMSF, pH 8 w/NaOH), disrupted by vortexing with glass beads, and then treated with 0.1% Triton X-100 to release apoaequorin from the mitochondria. Following centrifugation, 200 μl aliquots of the supernatants were incubated with coelenterazine (2.5 μM) and 2-mercaptoethanol (2 μl), for ˜3 hr while standing on ice, to form the luminescent aequorin from its apoprotein. The coelenterazine cofactor is highly hydrophobic and readily permeates yeast cell membranes (Nakajima et al., 1991) such that reconstitution was conducted without disrupting the cells in some cases. 2-mercaptoethanol was omitted when intact cells were employed. A transformant which yielded high luminescence (named X4003-5B-AEQmito1) was selected for further characterization.
For preculture, the transformant was inoculated into 50 ml of SC-U plus 2% glucose, and incubated in an air shaker at 180 rpm and 30° C. At 24 hr, the preculture was transferred to 500 ml of a medium containing 1% yeast extract, 2% peptone, 2% lactate, 1% galactose, 0.012% adenine, pH 5 w/NaOH, and growth was continued under conditions which were otherwise the same. […]
Luminescence measurements were carried out in 6×50 mm culture tubes, using a total volume of 0.3 ml, and were started by injection of 5-20 μl of mitochondria or cells. […] For each value, the ratio of observed luminescence (L) to the potential luminescence remaining (Lmax) was calculated, and compared to a calibration curve which relates this ratio to the free Ca^2+ concentration. […] The total luminescence available initially (Ltotal) must be known and was determined in separate experiments, wherein a saturating Ca^2+ concentration (20 μM) is employed to discharge the aequorin completely. This value allows Lmax to be calculated at any time, as Ltotal minus the sum of luminescence that already occurred. […]

**Q.** With O=C(COCC(=O)N(C1CCCCC1)C1CCCCC1)N(C1CCCCC1)C1CCCCC1 [ETH 129] as the compound, how does the “effect on ΔΨ, ionophore together with Ca2+” value (yeast mitochondria; CaCl2 plus ionophore, FIG. 11C) read?
**A.** sustained reduction

**Q.** And the “effect on ΔΨ, agent alone” value (yeast mitochondria; FIG. 11B)?
**A.** little effect

**Q.** And the “discharge of aequorin in intact cells” value (intact yeast; 6.5 μM ETH 129, FIG. 19A)?
**A.** discharge of essentially all of the aequorin

**Q.** And the “rise of mitochondrial Ca2+ concentration in response to ionophore” value (intact yeast; 6.5 μM ETH 129, cells oxidizing ethanol, 14 mM CaCl2, FIG. 20)?
**A.** 6 fold
